In patent US20180155344A1, “TRICYCLIC PIPERIDINE COMPOUNDS” (ACTELION PHARMACEUTICALS LTD, priority 2015, published 2018):

Biological target: T1, human TPH1 (Homo sapiens, UniProt P17752)
T1 sequence (P17752 1-444): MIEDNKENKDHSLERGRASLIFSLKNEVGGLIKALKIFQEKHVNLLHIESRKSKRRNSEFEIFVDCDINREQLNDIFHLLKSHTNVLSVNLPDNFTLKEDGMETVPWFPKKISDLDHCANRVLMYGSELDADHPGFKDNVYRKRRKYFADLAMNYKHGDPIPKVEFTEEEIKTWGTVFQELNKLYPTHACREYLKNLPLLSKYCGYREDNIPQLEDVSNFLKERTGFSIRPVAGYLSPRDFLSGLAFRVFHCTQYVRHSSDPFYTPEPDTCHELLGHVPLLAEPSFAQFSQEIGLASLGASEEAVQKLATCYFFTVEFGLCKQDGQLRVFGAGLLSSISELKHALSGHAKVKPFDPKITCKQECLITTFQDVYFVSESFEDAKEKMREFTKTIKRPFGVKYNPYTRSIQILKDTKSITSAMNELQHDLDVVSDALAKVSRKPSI
Assay: biochemical
Description: Biochemical In Vitro Assay Using Fluorescence Readout
To generate the enzyme, full length human TPH1 is cloned into the plasmid pET20b(+) (Novagen) and expressed in E. coli. The bacterial cells are ruptured by sonication on ice and the lysate is cleared by centrifugation. The resulting protein in the pellet is re-extracted and TPH1 is purified from the obtained lysate by affinity chromatography using a pterin cosubstrate analog immobilized to the resin of the column. The protein is further purified by size exclusion chromatography to remove protein aggregates. The activity of TPH1 is determined by using a fluorescence assay. The enzyme activity assay is carried out at 15° C. with atmosphere oxygen for the duration of 60 minutes in a volume of 64 μl. The reaction is carried out in a 0.1 M Tris-HCl buffer, adjusted to pH 7.6, containing 1 mM DTT, 0.2 mg/mL catalase, 100 μM (±)-6-methyl-5,6,7,8-tetrahydropterine dihydrochloride, 40 μM L-tryptophan, and 40-80 nM of TPH1. The reaction is started by bringing together L-tryptophan with all the other reaction substituents and stopped by quenching with perchloric acid (HClO4). The amount of 5-hydroxy-L-tryptophan produced during the enzymatic reaction is determined by fluorescence readout. Fluorescence, as determined at 540 nm when excited at 300 nm wavelength, increases proportionally to the 5-hydroxy-L-tryptophan formed. Compounds are prepared as 10 mM stock solution in DMSO, then diluted in 384-well plates using DMSO followed by a transfer of the dilutions into the assay plate. Fluorescence is measured for each well and the fluorescence at 540 nm wavelength is compared to the fluorescence of the vehicle in place of compound. […] The calculated IC50 values may fluctuate depending on the daily biochemical assay performance. Fluctuations of this kind are known to those skilled in the art.

| IC50 [nM] | SMILES |
| --- | --- |
| 9 | O=C(COc1ccc(N2CCOCC2)cc1Cl)N1CCc2nc3ccccn3c2C1c1ccc(C2CC2)cc1F (stereo not drawn) [Example 1.5.1, 2-(2-chloro-4-morpholinophenoxy)-1-(1-(4-cyclopropyl-2-fluorophenyl)-3,4-dihydroimidazo[1,2-a:5,4-c′]dipyridin-2(1H)-yl)ethan-1-one] |
| 34 | O=C(COc1cccnc1Cl)N1CCc2nc3ccccn3c2C1c1ccc(C2CC2)cc1F (stereo not drawn) [Example 1.5.4, 2-((2-chloropyridin-3-yl)oxy)-1-(1-(4-cyclopropyl-2-fluorophenyl)-3,4-dihydroimidazo[1,2-a:5,4-c′]dipyridin-2(1H)-yl)ethan-1-one] |
| 29 | CCc1nc(C)ccc1OCC(=O)N1CCc2nc3ccccn3c2C1c1ccc(C2CC2)cc1F (stereo not drawn) [Example 1.5.5, 1-(1-(4-cyclopropyl-2-fluorophenyl)-3,4-dihydroimidazo[1,2-a:5,4-c′]dipyridin-2(1H)-yl)-2-((2-ethyl-6-methylpyridin-3-yl)oxy)ethan-1-one] |
| 13 | O=C(COc1cccnc1C(F)(F)F)N1CCc2nc3ccccn3c2C1c1ccc(C2CC2)cc1F (stereo not drawn) [Example 1.5.6, 1-(1-(4-cyclopropyl-2-fluorophenyl)-3,4-dihydroimidazo[1,2-a:5,4-c′]dipyridin-2(1H)-yl)-2-((2-(trifluoromethyl)pyridin-3-yl)oxy)ethan-1-one] |
| 387 | O=C(COc1ccc(N2CCOCC2)nc1Cl)N1CCc2nc3ccccn3c2C1c1cnc(N2CCOCC2)s1 (stereo not drawn) [Example 1.6.1, 2-((2-chloro-6-morpholinopyridin-3-yl)oxy)-1-(1-(2-morpholinothiazol-5-yl)-3,4-dihydroimidazo[1,2-a:5,4-c′]dipyridin-2(1H)-yl)ethan-1-one] |
| 101 | CN(C)Cc1csc(C2c3c(nc4ccccn34)CCN2C(=O)COc2ccc(N3CCOCC3)nc2Cl)c1 (stereo not drawn) [Example 1.7.1, 2-((2-chloro-6-morpholinopyridin-3-yl)oxy)-1-(1-(4-((dimethylamino)methyl)thiophen-2-yl)-3,4-dihydroimidazo[1,2-a:5,4-c′]dipyridin-2(1H)-yl)ethan-1-one] |
| 16 | O=C(COc1ccc(N2CCOCC2)nc1Cl)N1CCc2nc3ccccn3c2C1c1nc(-c2ccccc2)no1 (stereo not drawn) [Example 1.8.1, 2-((2-chloro-6-morpholinopyridin-3-yl)oxy)-1-(1-(3-phenyl-1,2,4-oxadiazol-5-yl)-3,4-dihydroimidazo[1,2-a:5,4-c′]dipyridin-2(1H)-yl)ethan-1-one] |
| 123 | CCc1ncccc1OCC(=O)N1CCc2nc3ccccn3c2C1c1ccc(Cl)nc1F (stereo not drawn) [Example 1.11.2, 1-(1-(6-chloro-2-fluoropyridin-3-yl)-3,4-dihydroimidazo[1,2-a:5,4-c′]dipyridin-2(1H)-yl)-2-((2-ethylpyridin-3-yl)oxy)ethan-1-one] |
| 241 | CCc1nc(C)ccc1OCC(=O)N1CCc2nc3ccccn3c2C1c1ccc(Cl)nc1F (stereo not drawn) [Example 1.11.3, 1-(1-(6-chloro-2-fluoropyridin-3-yl)-3,4-dihydroimidazo[1,2-a:5,4-c′]dipyridin-2(1H)-yl)-2-((2-ethyl-6-methylpyridin-3-yl)oxy)ethan-1-one] |
| 8 | O=C(COc1ccc(N2CCOCC2)nc1Cl)N1CCc2nc3ccccn3c2C1c1ncc(C2CC2)cc1F (stereo not drawn) [Example 1.12.1, 2-((2-chloro-6-morpholinopyridin-3-yl)oxy)-1-(1-(5-cyclopropyl-3-fluoropyridin-2-yl)-3,4-dihydroimidazo[1,2-a:5,4-c′]dipyridin-2(1H)-yl)ethan-1-one] |
| 8 | O=C(COc1ccc(N2CCOCC2)nc1Cl)N1CCc2nc3ccccn3c2C1c1ccc(C2CC2)nc1F (stereo not drawn) [Example 1.13.1, 2-((2-chloro-6-morpholinopyridin-3-yl)oxy)-1-(1-(6-cyclopropyl-2-fluoropyridin-3-yl)-3,4-dihydroimidazo[1,2-a:5,4-c′]dipyridin-2(1H)-yl)ethan-1-one] |
| 71 | COC(=O)c1ccc(C2c3c(nc4ccccn34)CCN2C(=O)COc2ccc(NS(C)(=O)=O)nc2Cl)c(F)c1 (stereo not drawn) [Example 1.15.1, methyl-4-(2-(2-((2-chloro-6-(methylsulfonamido)pyridin-3-yl)oxy)acetyl)-1,2,3,4-tetrahydroimidazo[1,2-a:5,4-c′]dipyridin-1-yl)-3-fluorobenzoate] |

The remaining lines, values behind:

| SMILES | IC50 [nM] |
| --- | --- |
| O=C(COc1ccc(N2CCOCC2)nc1Cl)N1CCc2nc3ccccn3c2C1c1ccc(C2CC2)cc1F (stereo not drawn) [Example 1.5.2, 2-((2-chloro-6-morpholinopyridin-3-yl)oxy)-1-(1-(4-cyclopropyl-2-fluorophenyl)-3,4-dihydroimidazo[1,2-a:5,4-c′]dipyridin-2(1H)-yl)ethan-1-one] | 6 |
| Cc1nc(N(C)C)ccc1OCC(=O)N1CCc2nc3ccccn3c2C1c1ccc(C2CC2)cc1F (stereo not drawn) [Example 1.5.3, 1-(1-(4-cyclopropyl-2-fluorophenyl)-3,4-dihydroimidazo[1,2-a:5,4-c′]dipyridin-2(1H)-yl)-2-((6-(dimethylamino)-2-methylpyridin-3-yl)oxy)ethan-1-one] | 42 |
| COc1ccc(C2c3c(nc4ccccn34)CCN2C(=O)COc2ccc3ccccc3c2)cc1O (stereo not drawn) [Example 1.9.1, 1-(1-(3-hydroxy-4-methoxyphenyl)-3,4-dihydroimidazo[1,2-a:5,4-c′]dipyridin-2(1H)-yl)-2-(naphthalen-2-yloxy)ethan-1-one] | 230 |
| Cc1ccc(C2c3c(nc4ccccn34)CCN2C(=O)COc2ccc(Cl)cc2Cl)cc1C (stereo not drawn) [Example 1.10.1, 2-(2,4-dichlorophenoxy)-1-(1-(3,4-dimethylphenyl)-3,4-dihydroimidazo[1,2-a:5,4-c′]dipyridin-2(1H)-yl)ethan-1-one] | 451 |
| O=C(COc1ccc(N2CCOCC2)nc1Cl)N1CCc2nc3ccccn3c2C1c1ccc(Cl)nc1F (stereo not drawn) [Example 1.11.1, 1-(1-(6-chloro-2-fluoropyridin-3-yl)-3,4-dihydroimidazo[1,2-a:5,4-c′]dipyridin-2(1H)-yl)-2-((2-chloro-6-morpholinopyridin-3-yl)oxy)ethan-1-one] | 7 |
| O=C(COc1ccc(N2CCOCC2)cc1Cl)N1CCc2nc3ccccn3c2C1c1ncc(C2CC2)cc1F (stereo not drawn) [Example 1.12.2, 2-(2-chloro-4-morpholinophenoxy)-1-(1-(5-cyclopropyl-3-fluoropyridin-2-yl)-3,4-dihydroimidazo[1,2-a:5,4-c′]dipyridin-2(1H)-yl)ethan-1-one] | 23 |
| CCc1nc(C)ccc1OCC(=O)N1CCc2nc3ccccn3c2C1c1ncc(C2CC2)cc1F (stereo not drawn) [Example 1.12.3, 1-(1-(5-cyclopropyl-3-fluoropyridin-2-yl)-3,4-dihydroimidazo[1,2-a:5,4-c′]dipyridin-2(1H)-yl)-2-((2-ethyl-6-methylpyridin-3-yl)oxy)ethan-1-one] | 146 |
| O=C(COc1ccc(N2CCOCC2)nc1Cl)N1CCc2nc3ccccn3c2C1c1ncc(Cl)cc1F (stereo not drawn) [Example 1.14.1, 1-(1-(5-chloro-3-fluoropyridin-2-yl)-3,4-dihydroimidazo[1,2-a:5,4-c′]dipyridin-2(1H)-yl)-2-((2-chloro-6-morpholinopyridin-3-yl)oxy)ethan-1-one] | 4 |
| COC(=O)c1ccc(OCC(=O)N2CCc3nc4ccccn4c3[C@@H]2c2ncc(Cl)cc2F)c(Cl)n1 [Example 1.14.2, methyl (R)-6-chloro-5-(2-(1-(5-chloro-3-fluoropyridin-2-yl)-3,4-dihydroimidazo[1,2-a:5,4-c′]dipyridin-2(1H)-yl)-2-oxoethoxy)picolinate] | 222 |
